Molecular target: T1, Cav2.2-CRMP2 interaction (Mus musculus, UniProt O55017)
T1 construct: a mouse neuronal cell line expressing both CRMP2 and Cav2.2; endogenous in cells; host or cells: mouse CAD cells (ECACC Cat #08100805)
Experiment: CRMP2 immunoprecipitation to detect Cav2.2 in CAD cells
Format: cell-based
Experimental: Mouse neuron derived Cathecholamine A differentiated CAD cells (ECACC Cat #08100805, RRID: CVCL_0199) were grown in standard cell culture conditions, 37° C. in 5% (vol/vol) CO2. The cells were maintained in DMEM/F12 media supplemented with 10% (vol/vol) FBS (HyClone) and 1% penicillin/streptomycin sulfate from 10,000 μg/mL stock.
CAD cells were incubated overnight with a vehicle (0.1% DMSO) or CBD3063 (20 μM). The next day the cells were lysed into the IP buffer containing 20 mM Tris-HCl pH=7.4, 50 mM NaCl, 2 mM MgCl2, 10 mM N-Ethylmaleimide (NEM), 1% (vol/vol) NP-40, 0.5% (mass/vol) sodium deoxycholate, 0.1% (mass/vol) sodium dodecyl sulfate (SDS) with protease inhibitors (Cat #B14002, Biotool, Houston, TX), phosphatase inhibitors (Cat #B15002, Biotool, Houston, TX) and Nuclease (Cat #88701, Thermo Fisher Scientific, Waltham, MA). Total protein concentration was determined by BCA protein assay kit (Cat #PI23225, Thermo Fisher Scientific, Waltham, MA). Five hundred micrograms of total protein were incubated overnight with 2 μg of CRMP2 antibody (Cat #C2993, Sigma-Aldrich, St. Louis, MO) at 4° C. under gentle agitation. Protein G magnetic beads (Cat #10004D, Thermo Fisher Scientific, Waltham, MA), pre-equilibrated with the immunoprecipitation buffer, were then added to the lysates and incubated for 2 hours at 4° C. to capture immuno-complexes. […]

T1 sequence (O55017 whole entry): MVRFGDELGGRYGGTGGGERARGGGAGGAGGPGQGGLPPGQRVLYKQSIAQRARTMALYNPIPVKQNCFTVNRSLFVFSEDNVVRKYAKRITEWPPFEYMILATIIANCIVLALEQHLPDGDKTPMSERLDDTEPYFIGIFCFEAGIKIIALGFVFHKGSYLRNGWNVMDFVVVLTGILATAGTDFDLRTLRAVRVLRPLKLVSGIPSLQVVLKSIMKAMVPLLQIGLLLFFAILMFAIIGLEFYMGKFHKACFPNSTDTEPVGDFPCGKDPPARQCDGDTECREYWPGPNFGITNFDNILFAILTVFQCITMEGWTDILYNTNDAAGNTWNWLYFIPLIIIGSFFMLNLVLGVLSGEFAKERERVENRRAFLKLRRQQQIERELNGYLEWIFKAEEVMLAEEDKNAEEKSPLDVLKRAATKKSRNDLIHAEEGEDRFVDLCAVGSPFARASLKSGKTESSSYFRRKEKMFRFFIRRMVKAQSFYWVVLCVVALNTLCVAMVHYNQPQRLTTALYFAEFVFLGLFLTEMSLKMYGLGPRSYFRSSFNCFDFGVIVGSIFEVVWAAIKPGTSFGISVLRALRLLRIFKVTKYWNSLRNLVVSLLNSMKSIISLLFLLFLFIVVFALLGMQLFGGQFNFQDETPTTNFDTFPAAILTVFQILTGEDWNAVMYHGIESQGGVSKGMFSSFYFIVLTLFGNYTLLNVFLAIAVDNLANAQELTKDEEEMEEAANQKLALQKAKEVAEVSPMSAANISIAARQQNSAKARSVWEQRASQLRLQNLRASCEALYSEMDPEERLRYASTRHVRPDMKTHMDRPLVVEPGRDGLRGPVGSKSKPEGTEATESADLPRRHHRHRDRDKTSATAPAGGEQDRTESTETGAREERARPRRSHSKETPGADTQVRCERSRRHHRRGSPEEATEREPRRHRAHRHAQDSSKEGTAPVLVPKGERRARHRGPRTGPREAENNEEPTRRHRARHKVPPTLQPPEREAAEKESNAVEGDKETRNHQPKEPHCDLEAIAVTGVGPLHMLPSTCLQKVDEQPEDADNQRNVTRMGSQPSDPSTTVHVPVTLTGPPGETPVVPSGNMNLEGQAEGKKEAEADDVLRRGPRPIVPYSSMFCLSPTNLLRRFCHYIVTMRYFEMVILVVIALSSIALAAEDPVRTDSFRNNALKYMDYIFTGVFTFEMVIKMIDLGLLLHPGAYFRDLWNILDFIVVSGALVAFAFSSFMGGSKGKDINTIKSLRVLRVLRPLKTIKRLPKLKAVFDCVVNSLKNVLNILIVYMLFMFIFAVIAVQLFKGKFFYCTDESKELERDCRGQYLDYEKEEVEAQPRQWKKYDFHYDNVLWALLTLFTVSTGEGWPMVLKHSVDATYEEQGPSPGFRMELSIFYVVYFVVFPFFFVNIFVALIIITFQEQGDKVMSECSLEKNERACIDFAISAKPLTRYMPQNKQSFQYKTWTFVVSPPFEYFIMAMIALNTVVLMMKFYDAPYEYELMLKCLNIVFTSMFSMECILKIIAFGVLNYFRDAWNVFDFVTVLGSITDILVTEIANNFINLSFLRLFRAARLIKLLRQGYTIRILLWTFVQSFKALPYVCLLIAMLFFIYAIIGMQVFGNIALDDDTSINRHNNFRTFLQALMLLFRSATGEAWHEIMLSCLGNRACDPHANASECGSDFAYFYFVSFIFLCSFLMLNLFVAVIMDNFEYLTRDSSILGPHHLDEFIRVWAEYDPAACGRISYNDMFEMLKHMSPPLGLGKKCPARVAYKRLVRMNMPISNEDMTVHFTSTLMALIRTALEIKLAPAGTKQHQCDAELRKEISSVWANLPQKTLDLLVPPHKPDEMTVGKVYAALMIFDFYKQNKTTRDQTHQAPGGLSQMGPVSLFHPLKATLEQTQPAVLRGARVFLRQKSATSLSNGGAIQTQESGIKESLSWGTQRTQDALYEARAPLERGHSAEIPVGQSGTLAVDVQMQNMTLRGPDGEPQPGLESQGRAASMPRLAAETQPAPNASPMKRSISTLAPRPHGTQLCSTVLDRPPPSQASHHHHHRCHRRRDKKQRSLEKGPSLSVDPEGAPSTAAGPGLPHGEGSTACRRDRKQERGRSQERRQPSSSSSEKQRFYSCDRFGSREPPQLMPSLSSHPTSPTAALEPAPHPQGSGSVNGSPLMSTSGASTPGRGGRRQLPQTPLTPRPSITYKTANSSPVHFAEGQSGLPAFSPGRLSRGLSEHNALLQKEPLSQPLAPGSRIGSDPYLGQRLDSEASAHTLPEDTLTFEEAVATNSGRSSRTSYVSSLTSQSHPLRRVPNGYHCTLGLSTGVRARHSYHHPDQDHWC

relative Cav2.2 binding to CRMP2 (20 μM overnight (DMSO: 1.00±0.05)): 0.64±0.02 | reduction in the level of Cav2.2 protein immunoprecipitated by CRMP2 (20 μM overnight, versus control): ~35%
SMILES: CC(=O)N[C@@H]1CCCN(C(=O)NCCCNc2ccccn2)C1 [CBD3063, (3R)-3-acetamido-N-[3-(pyridin-2-ylamino)propyl]piperidine-1-carboxamide]

Source: US20250017940A1, “SELECTIVE PEPTIDOMIMETIC MODULATORS OF CAV2.2 (N-TYPE) VOLTAGE-GATED CALCIUM CHANNELS AND USES THEREOF” (New York University, priority 2023, published 2025)
